Source: publication PMC9501633, “Synthesis, Characterisation and Mechanism of Action of Anticancer 3-Fluoroazetidin-2-ones” (Pharmaceuticals, 2022)

Tested on: survivin
Experiment: Western blot of apoptosis regulatory proteins in MCF-7 cells
Type: cell-based, human
Details: MCF-7, 0.05, 0.1 and 0.5 μM, dose- and time-dependent
Source text: Survivin is a member of the inhibitor of apoptosis (IAP) protein family. It is an essential anti-apoptotic protein marker that is overexpressed in most tumour cells and is associated with a poor clinical outcome. Survivin inhibits caspase activation, which is used as an indicator of apoptosis cascades. Survivin selective inhibitor molecules have been identified as cancer therapeutics, including survivin–partner protein interaction inhibitors, survivin homodimerisation inhibitors, survivin gene transcription inhibitors and survivin mRNA inhibitors. We examined the effect of a range of concentrations of compound 33 (0.05, 0.1 and 0.5 μM) on the level of survivin expressed.
Western blot analysis was performed according to the protocols we previously described. MCF-7 cells were seeded at a density of 1 × 10^5 cells/flask in T25 flasks. After 48 h, whole cell lysates were prepared from untreated cells or cells treated with vehicle control (EtOH, 0.1% v/v) or cells treated with compound 33 (0.05 μM, 0.1 μM and 0.5 μM). […] Equal amounts of protein (as determined by a BCA assay) were resolved by SDS-PAGE (12%) followed by transfer to PVDF membranes. […] Proteins were detected using enhanced chemiluminescent Western blot detection (Clarity Western ECL substrate) (Bio-Rad) on the ChemiDoc MP System (Bio-Rad). […]

COc1ccc(C2C(F)C(=O)N2c2cc(OC)c(OC)c(OC)c2)cc1F (stereo not shown) [Compound 33, 3-Fluoro-4-(3-fluoro-4-methoxyphenyl)-1-(3,4,5-trimethoxyphenyl)azetidin-2-one]
survivin expression: downregulation
